# Assay results published in ChEMBL document CHEMBL1139933, “Synthesis of andrographolide derivatives: a new family of alpha-glucosidase inhibitors” (Bioorg Med Chem, 2007).
# Active and inactive are the calls of the source. The rule behind the calls is not given here.
# Target: T1, Maltase-glucoamylase (Homo sapiens, UniProt O43451)
# Assay: Inhibition of alpha-glucosidase at 1 mM
# Target sequence in this assay (O43451 whole entry, looked up): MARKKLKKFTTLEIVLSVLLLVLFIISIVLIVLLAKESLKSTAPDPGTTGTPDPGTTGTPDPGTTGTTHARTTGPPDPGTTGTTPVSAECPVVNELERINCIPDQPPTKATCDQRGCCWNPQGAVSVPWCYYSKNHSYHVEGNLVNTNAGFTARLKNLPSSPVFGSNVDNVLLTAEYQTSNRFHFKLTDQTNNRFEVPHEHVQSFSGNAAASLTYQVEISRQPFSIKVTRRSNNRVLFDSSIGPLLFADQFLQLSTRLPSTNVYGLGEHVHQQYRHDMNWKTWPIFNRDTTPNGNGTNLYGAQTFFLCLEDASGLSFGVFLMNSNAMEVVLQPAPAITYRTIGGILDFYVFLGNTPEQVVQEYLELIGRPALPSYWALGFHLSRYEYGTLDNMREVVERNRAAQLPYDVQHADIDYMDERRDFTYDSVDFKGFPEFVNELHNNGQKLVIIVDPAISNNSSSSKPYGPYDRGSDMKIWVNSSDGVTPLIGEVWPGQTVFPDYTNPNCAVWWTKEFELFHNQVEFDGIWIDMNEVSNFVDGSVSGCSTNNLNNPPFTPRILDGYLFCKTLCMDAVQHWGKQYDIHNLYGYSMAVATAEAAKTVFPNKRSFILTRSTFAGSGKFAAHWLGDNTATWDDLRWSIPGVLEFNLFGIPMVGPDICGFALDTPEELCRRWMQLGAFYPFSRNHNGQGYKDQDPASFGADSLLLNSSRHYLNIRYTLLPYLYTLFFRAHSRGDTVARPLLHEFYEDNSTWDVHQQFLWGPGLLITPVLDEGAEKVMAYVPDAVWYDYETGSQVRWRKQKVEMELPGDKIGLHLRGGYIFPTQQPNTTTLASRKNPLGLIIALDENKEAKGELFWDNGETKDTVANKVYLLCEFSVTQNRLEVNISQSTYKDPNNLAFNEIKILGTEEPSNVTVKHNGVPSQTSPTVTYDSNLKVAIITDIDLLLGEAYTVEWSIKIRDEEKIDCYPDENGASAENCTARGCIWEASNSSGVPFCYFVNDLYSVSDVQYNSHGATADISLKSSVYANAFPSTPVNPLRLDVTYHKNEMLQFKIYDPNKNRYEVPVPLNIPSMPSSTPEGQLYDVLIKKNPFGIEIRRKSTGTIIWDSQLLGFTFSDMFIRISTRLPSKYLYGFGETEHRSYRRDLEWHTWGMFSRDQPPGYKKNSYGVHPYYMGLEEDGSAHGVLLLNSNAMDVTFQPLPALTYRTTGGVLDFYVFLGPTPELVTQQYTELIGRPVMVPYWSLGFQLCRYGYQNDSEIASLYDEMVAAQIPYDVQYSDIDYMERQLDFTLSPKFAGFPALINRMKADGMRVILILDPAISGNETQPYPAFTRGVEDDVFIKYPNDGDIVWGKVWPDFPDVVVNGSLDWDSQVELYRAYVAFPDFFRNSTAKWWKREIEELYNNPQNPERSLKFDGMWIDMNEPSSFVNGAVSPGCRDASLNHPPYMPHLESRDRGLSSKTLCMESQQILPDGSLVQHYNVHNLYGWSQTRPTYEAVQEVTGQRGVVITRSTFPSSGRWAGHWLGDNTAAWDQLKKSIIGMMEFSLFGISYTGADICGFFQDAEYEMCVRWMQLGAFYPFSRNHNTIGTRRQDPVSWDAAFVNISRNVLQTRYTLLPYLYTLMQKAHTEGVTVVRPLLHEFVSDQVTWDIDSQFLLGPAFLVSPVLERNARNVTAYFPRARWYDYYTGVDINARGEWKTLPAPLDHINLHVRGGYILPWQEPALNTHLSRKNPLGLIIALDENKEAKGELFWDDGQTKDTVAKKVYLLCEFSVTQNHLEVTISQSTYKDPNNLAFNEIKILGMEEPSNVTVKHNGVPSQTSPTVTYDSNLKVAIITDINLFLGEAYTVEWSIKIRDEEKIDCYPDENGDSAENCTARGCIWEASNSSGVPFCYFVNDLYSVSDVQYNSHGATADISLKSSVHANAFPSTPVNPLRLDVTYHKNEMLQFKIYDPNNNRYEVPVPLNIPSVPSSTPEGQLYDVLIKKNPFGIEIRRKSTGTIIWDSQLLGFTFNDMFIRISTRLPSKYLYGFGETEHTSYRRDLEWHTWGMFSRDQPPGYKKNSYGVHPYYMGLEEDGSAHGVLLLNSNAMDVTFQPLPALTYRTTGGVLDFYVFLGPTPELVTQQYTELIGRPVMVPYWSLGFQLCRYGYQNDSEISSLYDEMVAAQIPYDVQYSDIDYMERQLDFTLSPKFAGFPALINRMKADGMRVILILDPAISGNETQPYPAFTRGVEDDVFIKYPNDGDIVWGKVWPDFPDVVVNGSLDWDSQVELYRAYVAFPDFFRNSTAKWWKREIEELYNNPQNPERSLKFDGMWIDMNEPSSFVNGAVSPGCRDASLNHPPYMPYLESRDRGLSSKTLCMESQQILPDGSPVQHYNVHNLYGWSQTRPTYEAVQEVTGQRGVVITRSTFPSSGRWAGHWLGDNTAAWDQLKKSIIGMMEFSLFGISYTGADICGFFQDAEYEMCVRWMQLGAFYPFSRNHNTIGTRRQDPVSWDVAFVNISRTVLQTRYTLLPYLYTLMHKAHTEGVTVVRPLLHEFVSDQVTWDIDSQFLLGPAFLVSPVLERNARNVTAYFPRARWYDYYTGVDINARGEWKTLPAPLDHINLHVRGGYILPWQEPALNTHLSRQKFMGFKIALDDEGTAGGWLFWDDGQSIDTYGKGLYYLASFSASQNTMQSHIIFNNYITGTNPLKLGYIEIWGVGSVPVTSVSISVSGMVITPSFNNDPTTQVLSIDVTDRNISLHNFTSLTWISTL
row,SMILES,inhibition
1,C[C@H]1O[C@H](O[C@H]2[C@H](O)[C@@H](O)[C@@H](O[C@H]3[C@H](O)[C@@H](O)C(O)O[C@@H]3CO)O[C@@H]2CO)[C@H](O)[C@@H](O)[C@@H]1N[C@H]1C=C(CO)[C@@H](O)[C@H](O)[C@H]1O (stereo partly specified),56.5%

# Target: T1, Maltase-glucoamylase
# Assay: Inhibition of alpha-glucosidase at 100 uM
# Target sequence in this assay (O43451 whole entry, looked up): as above
SMILES,Activity,inhibition
C=C1CC[C@@H]2[C@](C)(CO)[C@H](O)CC[C@@]2(C)[C@@H]1/C=C/C1=CC(=C/c2ccc(Cl)cc2)/OC1=O,inactive,
C=C1CC[C@@H]2[C@](C)(COC(=O)c3cccnc3)[C@H](OC(=O)c3cccnc3)CC[C@@]2(C)[C@@H]1/C=C/C1=CC(=C\c2ccc(Cl)cc2)/OC1=O,,100%
C=C1CC[C@@H]2[C@]3(C)COCO[C@@H]3CC[C@@]2(C)[C@@H]1CC(O)C1=CCOC1=O (stereo partly specified),,6.9%
C=C1CC[C@@H]2[C@](C)(CO)[C@H](O)CC[C@@]2(C)[C@@H]1CCC1CCOC1=O (stereo partly specified),inactive,
C=C1CC[C@@H]2[C@](C)(CO)[C@H](O)CC[C@@]2(C)[C@@H]1/C=C/C1=CC(=C/c2ccccc2)/OC1=O,,84.3%
C=C1CC[C@@H]2[C@](C)(CO)[C@H](O)CC[C@@]2(C)[C@@H]1/C=C/C1=CC(=C/c2ccco2)/OC1=O,,49.6%
C=C1CC[C@@H]2[C@](C)(CO)[C@H](O)CC[C@@]2(C)[C@@H]1/C=C/C1=CC(=C/c2ccc(N(C)C)cc2)/OC1=O,,60.6%
C=C1CC[C@@H]2[C@](C)(COC(=O)c3cccnc3)[C@H](OC(=O)c3cccnc3)CC[C@@]2(C)[C@@H]1/C=C/C1=CC(=C\c2ccccc2)/OC1=O,,100%
C=C1CC[C@@H]2[C@](C)(CO)[C@H](O)CC[C@@]2(C)[C@@H]1/C=C/C1=CC(=C/c2cc(OC)c(OC)cc2OC)/OC1=O,,57.8%
C[C@]1(CO)[C@H]2CC[C@@]3(CO3)[C@@H](C/C=C3/C(=O)OC[C@H]3O)[C@]2(C)CC[C@H]1O,inactive,
C=C1CC[C@@H]2[C@](C)(CO)[C@H](O)CC[C@@]2(C)[C@@H]1/C=C/C1=CC(=C\C(C)=C\CCC/C=C/C)/OC1=O,inactive,
C=C1CC[C@@H]2[C@](C)(COC(=O)c3cccnc3)[C@H](OC(=O)c3cccnc3)CC[C@@]2(C)[C@@H]1/C=C/C1=CC(=C\c2ccc(N(C)C)cc2)/OC1=O,,74.8%
C=C1CC[C@@H]2[C@](C)(COC(=O)c3cccnc3)[C@H](OC(=O)c3cccnc3)CC[C@@]2(C)[C@@H]1/C=C/C1=CC(=C\c2cccc(Br)c2)/OC1=O,,100%
C=C1CC[C@@H]2[C@](C)(COC(=O)c3cccnc3)[C@H](OC(=O)c3cccnc3)CC[C@@]2(C)[C@@H]1/C=C/C1=CC(=C\C(C)=C\CCC/C=C/C)/OC1=O,,68.9%
C=C1CC[C@@H]2[C@](C)(COC(=O)c3cccnc3)[C@H](OC(=O)c3cccnc3)CC[C@@]2(C)[C@@H]1/C=C/C1=CC(=C/c2ccco2)/OC1=O,,95.9%
C=C1CC[C@@H]2[C@](C)(CO)[C@H](O)CC[C@@]2(C)[C@@H]1C/C=C1/C(=O)OC[C@H]1O,inactive,
C=C1CC[C@@H]2[C@](C)(COC(=O)c3cccnc3)[C@H](OC(=O)c3cccnc3)CC[C@@]2(C)[C@@H]1/C=C/C1=CC(=C\c2ccc(OC)cc2)/OC1=O,,100%
C=C1CC[C@@H]2[C@](C)(CO)[C@H](O)CC[C@@]2(C)[C@@H]1/C=C/C1=CC(=C/c2ccc(F)cc2)/OC1=O,inactive,
C=C1CC[C@@H]2[C@](C)(CO)[C@H](O)CC[C@@]2(C)[C@@H]1/C=C/C1=CC(=C/c2ccc3c(c2)OCO3)/OC1=O,,59.3%

# Target: T1, Maltase-glucoamylase
# Assay: Inhibition of alpha-glucosidase
# Target sequence in this assay (O43451 whole entry): as the sequence (O43451 whole entry, looked up) above
row,SMILES,IC50
1,C=C1CC[C@@H]2[C@](C)(CO)[C@H](O)CC[C@@]2(C)[C@@H]1/C=C/C1=CC(=C/c2ccc(OC)cc2)/OC1=O,16 µM
